pIC50: −log10 of the molar value.
target: Tyrosine-protein kinase BTK (Homo sapiens, UniProt Q06187); assay: Inhibition of BTK in human whole blood assessed as decrease in CD69 positive cells; format: cell-based
Sequence (Q06187 whole entry): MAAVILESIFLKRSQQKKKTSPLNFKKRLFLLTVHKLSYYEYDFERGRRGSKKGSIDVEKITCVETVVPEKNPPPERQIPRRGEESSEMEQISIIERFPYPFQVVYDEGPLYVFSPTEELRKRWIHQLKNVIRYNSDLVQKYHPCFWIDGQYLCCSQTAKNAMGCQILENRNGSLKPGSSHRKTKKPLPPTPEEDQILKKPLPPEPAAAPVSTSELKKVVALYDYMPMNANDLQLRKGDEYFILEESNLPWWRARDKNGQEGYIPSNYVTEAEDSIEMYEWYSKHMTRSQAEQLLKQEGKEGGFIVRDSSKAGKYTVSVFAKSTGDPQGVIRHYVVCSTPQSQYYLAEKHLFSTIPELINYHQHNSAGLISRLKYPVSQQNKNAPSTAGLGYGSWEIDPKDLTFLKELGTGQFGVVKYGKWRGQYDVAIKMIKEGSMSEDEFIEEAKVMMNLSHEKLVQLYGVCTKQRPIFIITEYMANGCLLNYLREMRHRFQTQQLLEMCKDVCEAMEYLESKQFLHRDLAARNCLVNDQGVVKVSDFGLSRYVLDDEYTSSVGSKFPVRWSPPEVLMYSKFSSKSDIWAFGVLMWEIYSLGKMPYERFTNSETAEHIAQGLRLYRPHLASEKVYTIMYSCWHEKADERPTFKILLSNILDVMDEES

| Structure (SMILES) | pIC50 |
| --- | --- |
| CCNC(=O)Nc1cc(-c2cccc(N3CCc4cc(N(C)C)ccc4C3=O)c2CO)cn(C)c1=O | 5.80 |
| CNC(=O)Nc1cc(-c2ccc(F)c(N3CCc4cc(N(C)C)ccc4C3=O)c2CO)cn(C)c1=O | 5.43 |
| CN(C)c1ccc2c(=O)n(-c3cccc(-c4cc(Nc5ccc(C(=O)N6CCOCC6)cn5)c(=O)n(C)c4)c3CO)ccc2c1 | 6.55 |
| CN1CCN(c2ccc(Nc3cc(-c4cccc(N5CCc6cc(C(C)(C)C#N)ccc6C5=O)c4CO)cn(C)c3=O)nc2)CC1 | 7.22 |

The next lines start with the values.

| pIC50 | Structure (SMILES) |
| --- | --- |
| 6.72 | CN(C)c1ccc2c(c1)CCN(c1cccc(-c3cc(Nc4ccc(N5CCOCC5)cn4)c(=O)n(C)c3)c1CO)C2=O |
| 6.70 | CN(C)c1ccc2c(c1)CCN(c1cc(F)cc(-c3cc(Nc4ccc(N5CCOCC5)cn4)c(=O)n(C)c3)c1CO)C2=O |
